Measurements: article PMC3173955, “Antifungal Activities of Peptides Derived from Domain 5 of High-Molecular-Weight Kininogen” (International Journal of Peptides, 2011)
Peptide text beside a SMILES is read from it.

Tests used:
M. furfur ATCC 44342 = assay type: cell-based, Malassezia furfur; conditions: for MIC (concentration yielding at least 95% inhibition of fungal growth): ATCC 44342, 24 h
Method: Malassezia furfur ATCC 44342 (CCUG 24230) was obtained from the Department of Bacteriology at Skåne University Hospital. The antifungal activity was tested in an assay described by Lopez-[…] et al., but with some minor modifications. Cells were cultured for 2 days at 37 °C in 10 mL medium containing 4% Bacto Malt Extract (Becton, Dickinson and Company, Md, USA), 1% glucose (VWR international), 1% Tween 80 (Sigma-Aldrich, St. Louis, Mo, USA) and 0.6% Bacto Peptone (Becton, Dickinson and Company, Md, USA). Cells were then washed in 1 mM sodium phosphate buffer, pH 7.4. M. furfur cells were grown in sterile 96-well microtiter plates (Costar, Corning Incorporated, Corning, USA) in a total volume of 100 μL, containing 60 μL of 1 mM sodium phosphate buffer, pH 7.4, 20 μL of culture medium, 10 μL of a 10x stock solution of the synthetic peptides, and a 10x stock solution of the fungal cell suspension, resulting in a final concentration of 1-2 × 10^5 cells/mL. Chloramphenicol was added to each well (16 μg/ml) to avoid contamination. The cells were incubated at 30°C for 24 h. To quantify the fungicidal activity, serial dilutions of the incubation mixture were plated onto agar plates and incubated 72 h at 37°C, and the number of cfu thereafter was determined by counting visible colonies. The minimal inhibitory concentration (MIC) was defined as the concentration which yielded at least 95% inhibition of fungal growth.

C. albicans ATCC 90028 = assay: Radial diffusion assay (RDA), low salt; assay type: cell-based, Candida albicans; conditions: 6 μL at 100 μM; for Antifungal activity in RDA: low salt conditions (Figure 2(c))
Method: (§1) Radial diffusion assay (RDA) was performed as described by Lehrer et al. with some minor modifications. Candida was grown for 16 h at 28°C in 10 mL YPD to obtain yeast form organisms. The culture was centrifuged at 2000 ×g for 10 min then washed three times with 10 mM Tris, pH 7.4. A volume containing 1 × 10^5 cfu was added to 5 mL of previously autoclaved, 42°C, underlay agarose gel that contained 1.5 mg of Tryptic Soy Broth (TSB) base, 50 mg of low-electroendosmosistype (Low-EEO) agarose type I (A-6013-25G) (Sigma-Aldrich Inc, St. Louis, Mo, USA), and 1 μL of Tween 20 (0.02% w/v) (Sigma Chemical Co.) dissolved in 10 mM Tris, pH 7.4. The fungi were directly dispensed into the agar and mixed with a vortex mixer for 10 seconds and then quickly poured out into a petri dish, 85 mm in diameter. Wells, 4 mm in diameter, were punched, and each well was then filled up with 6 μL of test sample. After incubation at 35–37°C for 3 h, 5 mL of overlay agarose gel, consisting of 300 mg TSB, 50 mg Low-EEO agarose dissolved in distilled sterilized water, was poured out on top of the underlay gel. The clear zone surrounding the wells, indicating antifungal activity, was measured after 18–24 h of incubation at 28°C. HMWK degradation products were tested for RDA inhibitory effects (Figure 1(b)). Human leukocyte (neutrophil) elastase (HLE) and freeze-thaw-disrupted polymorphonuclear neutrophils (PMNs) at equivalent concentrations as used in the HMWK degradation were incubated at 37°C for 60 minutes and added as controls (Figure 1(b)).

[1] = system: C. parapsilosis ATCC 90018; assay: Radial diffusion assay (RDA); assay type: cell-based, Candida parapsilosis; conditions: 6 μl of peptide per well (Figure 2(b))
Method: as §1, with “Human leukocyte (neutrophil) elastase (HLE) and freeze-thaw-disrupted polymorphonuclear neutrophils (PMNs) at equivalent concentrations as used in the HMWK degradation were incubated at 37°C for 60 minutes and added as controls (Figure 1(b)).” left out

[2] = system: C. parapsilosis ATCC 90018; assay type: cell-based, Candida parapsilosis
Method: C. albicans ATCC 90028 and C. parapsilosis ATCC 90018 were obtained from the Department of Bacteriology Lund at Skåne University Hospital. Cells were precultured overnight on Sabouraud-dextrose-agar (Difco, Detroit, Mich) at 28°C, inoculated in 10 mL yeast extract-peptone-dextrose (YPD) broth (Sigma-Aldrich, St. Louis, Mo USA) at 28°C, and grown to mid-logarithmic phase. The cells were washed three times and diluted in 10 mM Tris, pH 7.4. Fifty μL of a suspension containing 1 × 10^6 fungal colony-forming units (cfu)/mL was incubated at 28°C for two hours with rD5, HKH20 at concentrations ranging from 0.3 μM to 60 μM, or the peptides HKH20, GKH17, GKH17WWW, and GKH17WWWWW at a concentration of 30 μM. To quantify the fungicidal activity, serial dilutions of the incubation mixture were plated onto Sabouraud-dextrose-agar plates (Difco, Detroit, Mich) and incubated for 48 h at 28°C, and the number of cfu were thereafter determined by counting visible colonies. Activity of 30 μM HKH20, GKH17, GKH17WWW, and GKH17WWWWW peptides against Candida was also tested in physiological salt conditions (0.15 M NaCl in 10 mM Tris, pH 7.4) in presence of 20% as well as 50% human plasma, and 50% human serum (in 0.15 M NaCl, 10 mM Tris, pH 7.4) (Figure 3). […]

[3] = Liposome leakage assay (carboxyfluorescein release); conditions: DOPC/sterol 60/40 mol/mol, 10 μM lipid in 10 mM Tris, 5 mM glucose, pH 7.4, 37°C, CF fluorescence at 520 nm, at least duplicate (Figure 4)
Description: The liposomes investigated were zwitterionic DOPC/cholesterol (60/40 mol/mol) or DOPC/ergosterol (60/40 mol/mol). DOPC (1,2-Dioleoyl-sn-Glycero-3-Phosphatidylcholine) was from Avanti Polar Lipids (Alabaster, USA) and of >99% purity, while ergosterol and cholesterol (>99% purity) were from Sigma-Aldrich (St. Louis, USA). Due to the long, symmetric, and unsaturated acyl chains of DOPC, several methodological advantages are reached. In particular, membrane cohesion is good, which facilitates very stable unilamellar liposomes, allowing detailed values on leakage to be obtained. The lipid mixtures were dissolved in chloroform, after which solvent was removed by evaporation under vacuum overnight. Subsequently, 10 mM Tris buffer, pH 7.4, was added together with 0.1 M carboxyfluorescein (CF) (Sigma, St. Louis, USA). After hydration, the lipid mixture was subjected to eight freeze-thaw cycles consisting of freezing in liquid nitrogen and heated to 60°C. Unilamellar liposomes of about Ø140 nm were generated by multiple extrusions through polycarbonate filters (pore size 100 nm) mounted in a LipoFast miniextruder (Avestin, Ottawa, Canada) at 22°C. […] CF release from the liposomes was determined by monitoring the emitted fluorescence at 520 nm from a liposome dispersion (10 μM lipid in 10 mM Tris, 5 mM glucose, pH 7.4). […]

NCCCC[C@H](NC(=O)[C@H](Cc1c[nH]c2ccccc12)NC(=O)CNC(=O)[C@H](CC(N)=O)NC(=O)[C@H](Cc1c[nH]cn1)NC(=O)[C@H](CCCCN)NC(=O)CNC(=O)[C@H](CC(N)=O)NC(=O)[C@H](CCCCN)NC(=O)[C@H](CCCCN)NC(=O)CNC(=O)[C@H](CCCCN)NC(=O)[C@H](CC(N)=O)NC(=O)[C@H](CCCCN)NC(=O)[C@H](Cc1c[nH]cn1)NC(=O)[C@H](CCCCN)NC(=O)CN)C(=O)O [GKH17] (H-GKHKNKGKKNGKHNGWK-OH)
MIC (concentration yielding at least 95% inhibition of fungal growth) (M. furfur ATCC 44342): 5 to 10 µM

NCCCC[C@H](NC(=O)CNC(=O)[C@H](CC(N)=O)NC(=O)[C@H](CCCCN)NC(=O)[C@H](CCCCN)NC(=O)CNC(=O)[C@H](CCCCN)NC(=O)[C@H](CC(N)=O)NC(=O)[C@H](CCCCN)NC(=O)[C@H](Cc1c[nH]cn1)NC(=O)[C@H](CCCCN)NC(=O)CNC(=O)[C@H](Cc1c[nH]cn1)NC(=O)CNC(=O)[C@H](Cc1c[nH]cn1)NC(=O)CNC(=O)[C@H](Cc1c[nH]cn1)NC(=O)[C@H](CCCCN)NC(=O)[C@@H](N)Cc1c[nH]cn1)C(=O)N[C@@H](Cc1c[nH]cn1)C(=O)O [HKH20] (H-HKHGHGHGKHKNKGKKNGKH-OH; N-terminus and C-terminus assumed)
Antifungal activity against M. furfur at fixed concentrations (M. furfur ATCC 44342; 10 μM or 30 μM, 24 h (Figure 2(e))): antifungal at 10 and 30 μM | MIC (concentration yielding at least 95% inhibition of fungal growth) (M. furfur ATCC 44342): 2.5 to 5 µM | Antifungal activity in RDA (C. albicans ATCC 90028): showed antifungal activity | Inhibitory activity in RDA in comparison to LL-37 (C. albicans ATCC 90028; low salt, P < 0.05 (Figure 2(c))): significantly more potent inhibitory activity on Candida, in comparison to LL-37 | Inhibitory activity in RDA compared with reference peptides [1]: significantly higher inhibitory activity on Candida, when compared with LL-37 | Antifungal activity in viable count assay ([2]; 0.3 μM to 60 μM, 1 × 10^6 cfu/mL, 2 h at 28°C, 10 mM Tris pH 7.4 (Figure 2(a))): potent antifungal activity | Candida cells killed (time-dependent killing) ([2]; ATCC 90018, 48 h, 30 μM, pH 7.4): > 80%

GGHVLDHGHKHKHGHGHGKH [GGH20]
Antifungal activity in RDA (C. albicans ATCC 90028): showed antifungal activity

GKHKNKGKKNGKHNGWKWWW [GKH17WWW, GKH17 hydrophobically end-tagged with three W residues at the C-terminal]
Membrane-disruptive potency, ergosterol- versus cholesterol-containing liposomes [3]: higher for ergosterol-containing liposomes than for cholesterol-containing ones
